According to patent US20250059141A1, “TLR MODULATOR AND USE THEREOF” (DUALITY BIOLOGICS (SUZHOU) CO., LTD., priority 2021, published 2025):
Where two headings read alike, the source gives them in different places.

Legend:
[1] = target: T1, hTLR8 (human Toll-like receptor 8) (Homo sapiens, UniProt Q9NR97); assay: HEK-Blue hTLR8 reporter assay (QUANTI-Blue, OD650); format: cell-based; settings: HEK-Blue hTLR8 cells, 24 h, read-out: Reporter assay TLR8 EC50
T1 construct: host or cells: HEK-Blue hTLR8 (HEK293-derived reporter cells)
T1 sequence (Q9NR97 27-1041): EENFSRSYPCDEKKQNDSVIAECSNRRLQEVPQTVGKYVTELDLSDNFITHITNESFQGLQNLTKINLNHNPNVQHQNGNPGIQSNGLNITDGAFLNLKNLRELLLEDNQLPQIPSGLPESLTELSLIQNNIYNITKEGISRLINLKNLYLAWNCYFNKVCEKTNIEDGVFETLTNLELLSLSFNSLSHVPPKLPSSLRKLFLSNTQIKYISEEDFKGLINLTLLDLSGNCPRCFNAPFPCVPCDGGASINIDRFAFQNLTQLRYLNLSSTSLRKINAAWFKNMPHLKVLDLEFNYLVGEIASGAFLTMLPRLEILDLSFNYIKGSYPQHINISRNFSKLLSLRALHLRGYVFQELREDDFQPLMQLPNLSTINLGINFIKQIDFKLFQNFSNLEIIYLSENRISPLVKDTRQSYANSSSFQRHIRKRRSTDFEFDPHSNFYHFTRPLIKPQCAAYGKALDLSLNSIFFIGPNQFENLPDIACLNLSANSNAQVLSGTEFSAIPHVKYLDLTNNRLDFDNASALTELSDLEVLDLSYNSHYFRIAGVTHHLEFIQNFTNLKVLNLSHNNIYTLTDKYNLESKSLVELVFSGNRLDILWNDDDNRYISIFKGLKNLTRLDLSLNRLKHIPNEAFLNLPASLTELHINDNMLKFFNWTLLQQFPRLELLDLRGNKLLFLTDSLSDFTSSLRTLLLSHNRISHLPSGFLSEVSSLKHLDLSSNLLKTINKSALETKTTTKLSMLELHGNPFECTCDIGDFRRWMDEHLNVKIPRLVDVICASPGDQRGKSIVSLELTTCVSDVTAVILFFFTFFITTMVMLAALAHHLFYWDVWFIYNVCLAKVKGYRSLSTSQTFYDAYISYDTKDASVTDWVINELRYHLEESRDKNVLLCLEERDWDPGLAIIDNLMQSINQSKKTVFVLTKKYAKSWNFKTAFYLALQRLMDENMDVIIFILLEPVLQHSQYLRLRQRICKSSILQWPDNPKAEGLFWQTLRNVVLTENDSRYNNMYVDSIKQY
Description: In this example, the agonistic activity of the compounds of the present application on hTLR7 (human Toll-like receptor 7) and hTLR8 (human Toll-like receptor 8) was assessed; the induction activity of the compounds on human PBMCs for TNF-α and IFN-α production was assessed in human PBMCs (human peripheral blood mononuclear cells).
All compounds were formulated in DMSO into 30 mM stock solutions and preserved at 4° C. The reference compound ([…], Cat. No. tlrl-r848-5) was purchased from InvivoGen and formulated into a 5 mg/mL stock solution in DMSO and preserved in a freezer at −20° C. HEK-Blue hTLR7 and HEK-Blue hTLR8 cell lines were purchased from InvivoGen, and human PBMCs were purchased from Shanghai Saily Biotechnology Co., Ltd. (Cat. No. XFB—HP100B).
The major instruments used in this study were multifunctional microplate reader Flexstation III (Molecular Device), Envision (Perkin Elmer), M2e (Molecular Device), and Echo555 (Labcyte). 2.1 Agonistic activity of compounds on hTLR7 (human Toll-like receptor 7) and hTLR8 (human Toll-like receptor 8)
Compound dilution: The compounds of the present application are diluted in DMSO, for example, to about 15 mM. The reference compound was added to the plates in sequence after dilution. The compounds were serially 3-fold diluted to 10 concentrations and added to 96-well plates in duplicate.
For the negative control wells, DMSO was added at 0.2 μL/well, and the reference compound was added to the positive control wells. The final concentration of DMSO was 0.2%.
Cell plating: When an 80% confluence of HEK Blue hTLR7&8 cells in the culture flask was observed under a microscope, the culture medium was discarded, 10 mL of detection medium was added, and the cells were separated by pipetting. The cells were counted on a cytometer and diluted to 500,000 cells/mL. The cells were plated at 100 μL/50,000 cells/well in the 96-well plates containing the compounds. The compounds and cells were co-incubated at 37° C. in a 5% CO2 incubator for 24 hours.
Compound activity detection: 20 μL of cell supernatant was taken from each well and added to a plate containing QUANTI-Blue™ reagent at 180 μL/well. The plate was incubated at 37° C. for 1 hour, and the absorbance at 650 nm (OD650) was measured on the multifunctional microplate reader Flexstation III.
Compound activity data analysis: The OD650 values were analyzed by GraphPad Prism software and fitted to give dose-response curves of the compounds. The EC50 values of compounds were calculated.

[2] = system: IFN-α production in human PBMCs; assay: Induction of IFN-α in human PBMCs (ELISA); format: cell-based; settings: PBMC, 24 h, read-out: PBMC assay IFNa EC50
Description: In this example, the induction activity of the compounds of the present application on human PBMCs for TNF-α and IFN-α production was assessed in human PBMCs (human peripheral blood mononuclear cells). The human PBMCs were purchased from Shanghai Saily Biotechnology Co., Ltd. (Cat. No. XFB—HP100B). PBMC cells were treated with the compounds. The compounds of the present application are diluted in DMSO, for example, to about 15 mM. The reference compound was added to the plates in sequence after diluted to 5 mg/mL. The compounds were serially 3- or 4-fold diluted to 8 concentrations and added to plates in duplicate (Table 2-1 for serial 3-fold dilutions and Table 2-2 for serial 4-fold dilutions). For the negative control wells, DMSO was added at 0.4 μL/well, and a 5 mg/mL reference compound solution was added to the positive control wells at 0.4 μL/well. The final concentration of DMSO was 0.2%. Frozen human PBMCs in cryopreservation tubes were quickly thawed in a 37° C. water bath and transferred into 50-mL centrifuge tubes. Prewarmed RPMI1640 medium was gradually added and the mixture was well mixed and centrifuged for 15 min before the supernatant was discarded. The cells were resuspended in a culture medium and counted. The cell suspension was adjusted to 2.5×10^6 cells/mL with the culture medium. Diluted cells were added at 200 μL/500,000 cells/well in 96-well plates containing the compounds. The cell plates were incubated at 37° C./5% CO2 for 24 h.
The plate was washed 4 times, then the detection antibody was added. […] The plate was washed 4 additional times, then the enzyme was added. […] Termination of reaction: The reaction was terminated by quickly adding the stop solution at 100 μL/well. Plate reading: The reading at wavelength 450 nm was detected by an M2e instrument within 10 min after the termination.
Compound activity data analysis: The OD450 values were converted to TNF-α and IFN-α contents by GraphPad Prism software analysis and fitted to give dose-response curves of the compounds. The EC50 values for the compounds were calculated, where the Emax values are the maximal values for TNF-α and IFN-α.

[3] = serial 4-fold dilutions, class symbols

EC50 [1] [nM] | EC50 ([1]; class symbols) [nM] | SMILES | EC50 ([2]; serial 3-fold dilutions) [nM] | EC50 [2, 3] [nM]
< 1.5 |  | CCCN(OCc1ccc(N)cc1)C(=O)C1=Cc2ccc(-c3cncc(CO)c3)cc2N=C(N)C1 [Compound 15] | 3.02 | 
 | 10 to 100 | CCCN(OCc1ccc(N)cc1)C(=O)C1=Cc2ccc(-c3cncc(C(=O)O)c3)cc2N=C(N)C1 [Compound 32] |  | 50 to 500
< 1.5 |  | CCCN(OCc1ccc(N)cc1)C(=O)C1=Cc2ccc(-c3cccc(S(N)(=O)=O)c3)cc2N=C(N)C1 [Compound 35] | 2.95 | 
1.71 |  | CCCN(OCc1ccc(N)cc1)C(=O)C1=Cc2ccc(-c3cncc(S(N)(=O)=O)c3)cc2N=C(N)C1 [Compound 36] | 6.05 | 
 | 10 to 100 | CCCN(OCc1ccc(N)cc1)C(=O)C1=Cc2ccc(C(=O)N3CC(CO)C3)cc2N=C(N)C1 [Compound 37] |  | > 500
2.5 |  | CCCN(OCc1ccc(N)cc1)C(=O)C1=Cc2ccc(C(=O)Nc3cccnc3)cc2N=C(N)C1 [Compound 40] | 1320 | 
5.37 |  | CCCN(OCc1ccc(N)cc1)C(=O)C1=Cc2ccc(-c3cccc(S(=O)(=O)N4CC(O)C4)c3)cc2N=C(N)C1 [Compound 41] | 31.1 | 50 to 500
 | 10 to 100 | CCCN(OCc1ccc(N)cc1)C(=O)C1=Cc2ccc(-c3ccc(C(=O)N4CC[C@@H](O)C4)cc3)cc2N=C(N)C1 [Compound 42] | 48.3 | > 500
< 1.5 |  | CCCN(OCc1ccc(N)cc1)C(=O)C1=Cc2ccc(-c3ccc4c(c3)C(=O)OC4)cc2N=C(N)C1 [Compound 43] | 29.6 | 
2.3 |  | NC1=Nc2cc(-c3cncc(CO)c3)ccc2C=C(C(=O)N(CC2CC2)OCc2ccc(N)cc2)C1 [Compound 45] | 7.25 | 
 | 10 to 100 | CCCN(OCc1ccc(N)cc1)C(=O)C1=Cc2ccc(C(=O)N3CCC(O)C3)cc2N=C(N)C1 (stereo not shown) [Compound 46] |  | 50 to 500
 | 10 to 100 | CCCN(OCc1ccc(N)cc1)C(=O)C1=Cc2ccc(C(=O)N3CCOC(CO)C3)cc2N=C(N)C1 (stereo not shown) [Compound 47] |  | 50 to 500
 | 10 to 100 | CCCN(OCc1ccc(N)cc1)C(=O)C1=Cc2ccc(C(=O)NCCO)cc2N=C(N)C1 [Compound 48] |  | > 500
6.6 |  | CCCN(OCc1ccc(N)cc1)C(=O)C1=Cc2ccc(-c3cncc(Cl)c3)cc2N=C(N)C1 [Compound 49] | 48.2 | 
1.5 |  | CCCN(OCc1ccc(N)cc1)C(=O)C1=Cc2ccc(-c3cncc(C#N)c3)cc2N=C(N)C1 [Compound 50] | 41.5 | 
5.6 |  | CCCN(OCc1ccc(N)cc1)C(=O)C1=Cc2ccc(-c3ccc(C#N)nc3)cc2N=C(N)C1 [Compound 51] | 142 | 

EC50 [1] [nM] | EC50 ([1]; class symbols) [nM] | SMILES | EC50 ([2]; serial 3-fold dilutions) [nM] | EC50 [2, 3] [nM]
4.4 |  | CCCN(OCc1ccc(N)cc1)C(=O)C1=Cc2ccc(-c3cncc(N)c3)cc2N=C(N)C1 [Compound 52] | 6.58 | 
 | 10 to 100 | CCCN(OCc1ccc(N)cc1)C(=O)C1=Cc2ccc(-c3cncc(C(F)(F)F)c3)cc2N=C(N)C1 [Compound 53] |  | 50 to 500
< 1.5 |  | CCCN(OCc1ccc(N)cc1)C(=O)C1=Cc2ccc(-c3cncc(CN)c3)cc2N=C(N)C1 [Compound 54] | 5.35 | 
2.3 |  | CCCN(OCc1ccc(N)cc1)C(=O)C1=Cc2ccc(-c3ccc(N4CCOCC4)nc3)cc2N=C(N)C1 [Compound 55] | 43.4 | 
< 1.5 |  | CCCN(OCc1ccc(N)cc1)C(=O)C1=Cc2ccc(-c3cncc(S(C)(=O)=O)c3)cc2N=C(N)C1 [Compound 56] | 28.5 | 
 | ≤ 10 | NC1=Nc2cc(-c3cncc(CO)c3)ccc2C=C(C(=O)N(CCC(F)(F)F)OCc2ccc(N)cc2)C1 [Compound 58] |  | 10 to 50
 | ≤ 10 | CCCN(OCc1ccc(N)cc1Cl)C(=O)C1=Cc2ncc(-c3cncc(CO)c3)cc2N=C(N)C1 [Compound 59] |  | 50 to 500
 | ≤ 10 | CCCN(OCc1ccc(N)cc1OC)C(=O)C1=Cc2ncc(-c3cncc(CO)c3)cc2N=C(N)C1 [Compound 60] |  | 50 to 500
 | ≤ 10 | CCCN(OCc1ccc(N)cc1)C(=O)C1=Cc2ncc(-c3cncc(CO)c3)cc2N=C(N)C1 [Compound 61] |  | 10 to 50
 | ≤ 10 | CCCN(OCc1ccc(N)cc1)C(=O)C1=Cc2ccc(-c3cncc(CO)c3)nc2N=C(N)C1 [Compound 62] |  | ≤ 10
 | ≤ 10 | CCCN(OCc1ccc(N)cc1)C(=O)C1=Cc2ccc(-c3cnc4c(c3)C(=O)OC4)nc2N=C(N)C1 [Compound 63] |  | 10 to 50
 | ≤ 10 | CCCN(OCc1ccc(N)cc1)C(=O)C1=Cc2ccc(-c3cccc(S(=O)(=O)NCCO)c3)cc2N=C(N)C1 [Compound 64] |  | 10 to 50
 | ≤ 10 | CCCN(OCc1ccc(N)cc1)C(=O)C1=Cc2ccc(-c3cccc(S(=O)(=O)N4CCC(O)CC4)c3)cc2N=C(N)C1 [Compound 66] |  | 50 to 500
 | ≤ 10 | CCCN(OCc1ccc(N)cc1)C(=O)C1=Cc2ccc(-c3cccc(S(=O)(=O)N4CCNCC4)c3)cc2N=C(N)C1 [Compound 67] |  | > 500
 | ≤ 10 | CCCN(OCc1ccc(N)cc1)C(=O)C1=Cc2ccc(-c3cccc(S(=O)(=O)N4CCOCC4)c3)cc2N=C(N)C1 [Compound 68] |  | 10 to 50
